{"source": "patent US8282926B2", "about": "“CCR5-specific antibodies with HIV neutralizing activity that recognize a linear dodecapeptide that mimics a conformational epitope in the second extracellular loop of CCR5” (The United States of America, as Represented by the …, priority 2004, dated 2012)", "key": {"[1]": {"tested_on": "mAb 2D7", "assay": "Peptide ELISA: mAb 2D7 binding to biotinylated peptides captured on streptavidin", "set-up": "species or system mouse", "settings": "for binding of mAb 2D7 to peptide in ELISA: biotinylated peptide captured by streptavidin", "method": "The bound antibodies were quantified by HRP-conjugated goat anti-mouse IgG antibody. […] Microtiter wells, coated with mAb 2D7 at 200 ng/well, were incubated with serially diluted synthetic 2D7-2SK peptide or with a control peptide (CGRAARIGFPGAYTTKNG) (SEQ ID NO:3) for 30 min at room temperature, p2D7-2SK phages were then added to all wells (10^9 phages/well), followed by addition of HRP-conjugated anti-phage antibodies. […] MAb 2D7 (50 ng/100 μl/well) was added to plates coated with either unmodified biotin-2D7-2SK peptide or mutated biotin-2D7-2SK peptide derivatives (Table 1), all captured on streptavidin coated wells. The bound 2D7 antibodies were quantified by HRP-conjugated goat anti-mouse IgG antibody. The absorbance value (0.49) of mAb 2D7 binding to 2D7-2SK peptide (unmodified) is represented as 100% control binding.\nA. Materials. […] Monoclonal antibody (mAb) 2D7 was purchased from BD Pharmingen (San Diego, Calif.). Immunoglobulin and HRP (horseradish peroxidase) conjugated secondary antibodies used for ELISA were obtained from Jackson Immuno Research Laboratories (West Grove, Pa.). Buffers and substrates for ELISA were purchased from KPL Biotech (Gaithersburg, Md.). New Zealand Rabbits were procured from Charles River (Wilmington, Mass.). B. Epitope mapping using phage display library. A random, linear, dodecapeptide-phage display library (Ph.D-12, New England Biolabs) was used for mAb 2D7 epitope mapping. Affinity selection of the phage clones from the random peptide library was carried out per the manufacturer's instructions with minor modifications. Microtiter wells were coated with 200 ng mAb 2D7 in 100 μl PBS, pH 7.4, at 4° C. for 12 h followed by 1 h at room temperature (RT). The wells were washed with PBS containing 0.05% Tween-20 (PBST) and blocked with EMEM containing 5% FBS at RT for 2 h. The phage library (1×10^10 phages/100 μl) was added to the blocked wells and incubated at RT for 1 h. Unbound phages were washed-off with ten washes of PBST followed by three washes with PBS. The bound phages were eluted at low pH by incubation with elution buffer (0.1 N Gly.HCl, pH 2.2 containing 1 mg/ml BSA) at 37° C. for 10 min. Eluent phages were neutralised with 6 μl of 2 M Tris (pH unadjusted) per 100 μl phage eluate. After four rounds of biopanning, the phage clones were analysed by DNA sequencing and affinity-capture phage ELISA. C. Phage ELISA. Phages used for ELISA were derived from clones selected after the fourth round of panning. Microtiter plates coated with 200 ng of mAb 2D7 were blocked with EMEM containing 5% FBS (blocking solution). The phages (10^10/100 μl/well) diluted in blocking solution were then added and incubated for 1 h at room temperature (RT). The plates were washed three times with PBST prior to addition of […] anti-phage antibody (GE Healthcare, Piscataway, N.J.), and the reaction was quantified using ABTS substrate. Absorbance was measured at 405 nm. D. Peptide ELISA. Peptides were biotinylated using maleimide PEO2-Biotin reagent as per manufacturer's instructions (Pierce Biotech, Rockford, Ill.). The biotinylated peptide ([…]) was captured onto wells coated with 200 ng of streptavidin. After blocking with EMEM containing 5% FBS, serial dilutions of mAb 2D7 in blocking solution were added to each well, incubated for 1 hr at RT, followed by addition of peroxidase-conjugated goat anti-mouse IgG. The reaction was quantified using ABTS substrate. Absorbance was measured at 405 nm. […]"}, "[2]": {"tested_on": "mAb 2D7", "assay": "Competition phage ELISA using synthetic peptides", "format": "binding, mouse", "settings": "free peptide, FIG. 3B"}, "[3]": {"tested_on": "PM1 (CD4+/CCR5+) cells and 12E1 cells expressing HIV-1 envelope", "assay": "Fusion-inhibition (syncytium-formation) assay, PM1 cells with 12E1 cells expressing HIV-1 envelope", "format": "cell-based, human"}, "[4]": {"tested_on": "2D7-2SK peptide", "assay": "Peptide ELISA: antibody binding to biotinylated 2D7-2SK peptide", "settings": "ELISA / binding assay", "method": "IgG antibodies from rabbit immunized subcutaneously with KLH-conjugated 2D7-2SK peptide were used in peptide and Cell ELISA. […] Specific antibody binding was measured by HRP-conjugated goat anti-rabbit IgG antibody.\nA. Materials. […] Monoclonal antibody (mAb) 2D7 was purchased from BD Pharmingen (San Diego, Calif.). Immunoglobulin and HRP (horseradish peroxidase) conjugated secondary antibodies used for ELISA were obtained from Jackson Immuno Research Laboratories (West Grove, Pa.). Buffers and substrates for ELISA were purchased from KPL Biotech (Gaithersburg, Md.). New Zealand Rabbits were procured from Charles River (Wilmington, Mass.). B. Epitope mapping using phage display library. A random, linear, dodecapeptide-phage display library (Ph.D-12, New England Biolabs) was used for mAb 2D7 epitope mapping. Affinity selection of the phage clones from the random peptide library was carried out per the manufacturer's instructions with minor modifications. […] After four rounds of biopanning, the phage clones were analysed by DNA sequencing and affinity-capture phage ELISA. […] The plates were washed three times with PBST prior to addition of […] anti-phage antibody (GE Healthcare, Piscataway, N.J.), and the reaction was quantified using ABTS substrate. Absorbance was measured at 405 nm. […] The reaction was quantified using ABTS substrate. Absorbance was measured at 405 nm. […]"}}, "data": [{"molecule": "Q-L-W-L-G-W-T-E-L-E-G-V-K-G-G-G-S-C (QLWLGWTELEGVKGGGSC) [2D7-2SK-SCR, reference compound]", "values": [{"measurement": "binding of mAb 2D7 to peptide in ELISA", "setting": "[1]", "value": "not"}]}, {"molecule": "F-C-A-L-D-G-D-F-G-W-L-A-P-A-C (FCALDGDFGWLAPAC) [MD23, reference compound]", "values": [{"measurement": "binding of mAb 2D7 to peptide in ELISA", "setting": "[1]", "value": "did not bind"}]}, {"molecule": "E-W-Q-K-E-G-L-V-T-L-W-L-G-G-G-G-S-C (EWQKEGLVTLWLGGGGSC) [2D7-2SK]", "values": [{"measurement": "binding of mAb 2D7 to peptide in ELISA", "setting": "[1]", "value": "concentration-dependent specific reactivity"}, {"measurement": "absorbance value of mAb 2D7 binding to peptide", "setting": "[1]; mAb 2D7 50 ng/100 μl/well, represented as 100% control binding, FIG. 3C", "value": 0.49}, {"measurement": "inhibition of binding of phage p2D7-2SK to mAb 2D7-coated plates", "setting": "[2]", "value": "inhibited"}, {"measurement": "inhibitory activity of peptide by itself in the fusion assay", "setting": "[3]; peptide alone", "value": "did not demonstrate any inhibitory activity"}]}, {"molecule": "E-W-Q-R-E-G-L-V-T-L-W-L-G-G-G-G-S-C (EWQREGLVTLWLGGGGSC) [2D7-2SK-K4R]", "values": [{"measurement": "binding of mAb 2D7 to peptide in ELISA", "setting": "[1]", "value": "completely lost binding"}]}, {"molecule": "ScFv-SK-34: single chain human monoclonal antibody against peptide 2D7-2SK; VH SEQ ID NO:12, VL SEQ ID NO:14 (antibody, listed as Homo sapiens, V domains shown) VH: EVQLLESGGGLVQPGGSLRLSCAASGFTFDDYGMSWVRQAPGKGLEWVSVISASGGSTYYADSVNGRFTISRDNSKNTLYLQMNSLRAEDTAVYYCARYLPGLWAMDVWGQGTLVTVSSGSA VL: DIVLTQPPSASGTPGQRVTISCTGSRSNIGKNYVSWYQQLPGKAPKLLIYKNYQRPSGVPDRFSGSKSGTSASLAISGLRSEDEADYYCAAWDDSLSGWVFGGSTQLTVLA", "values": [{"measurement": "inhibition of HIV syncytia formation, in words", "setting": "[3]; R5 HIV-1 envelopes, human CCR5 expressing cells", "value": "positive"}, {"measurement": "binding to 2D7-2SK peptide", "setting": "[4]", "value": "bind preferentially and with high affinity"}]}]}
